Experimental findings from patent publication US6984649B1, “Pyridine derivatives” (Bayer Aktiengesellschaft, priority 2000, dated 2006) are described below.

A value given as a limit tells only on which side of the number the result lay.

This assay deals with T1, human IKK-β (Homo sapiens, UniProt O14920).
T1 construct: A cDNA fragment encoding human IKK-β open reading frame was generated by PCR; His tag (from pcDNA3.1/His C); made in house; host or cells: Sf21 insect cells (baculovirus); substrate made in E. coli
T1 sequence (O14920 1-756): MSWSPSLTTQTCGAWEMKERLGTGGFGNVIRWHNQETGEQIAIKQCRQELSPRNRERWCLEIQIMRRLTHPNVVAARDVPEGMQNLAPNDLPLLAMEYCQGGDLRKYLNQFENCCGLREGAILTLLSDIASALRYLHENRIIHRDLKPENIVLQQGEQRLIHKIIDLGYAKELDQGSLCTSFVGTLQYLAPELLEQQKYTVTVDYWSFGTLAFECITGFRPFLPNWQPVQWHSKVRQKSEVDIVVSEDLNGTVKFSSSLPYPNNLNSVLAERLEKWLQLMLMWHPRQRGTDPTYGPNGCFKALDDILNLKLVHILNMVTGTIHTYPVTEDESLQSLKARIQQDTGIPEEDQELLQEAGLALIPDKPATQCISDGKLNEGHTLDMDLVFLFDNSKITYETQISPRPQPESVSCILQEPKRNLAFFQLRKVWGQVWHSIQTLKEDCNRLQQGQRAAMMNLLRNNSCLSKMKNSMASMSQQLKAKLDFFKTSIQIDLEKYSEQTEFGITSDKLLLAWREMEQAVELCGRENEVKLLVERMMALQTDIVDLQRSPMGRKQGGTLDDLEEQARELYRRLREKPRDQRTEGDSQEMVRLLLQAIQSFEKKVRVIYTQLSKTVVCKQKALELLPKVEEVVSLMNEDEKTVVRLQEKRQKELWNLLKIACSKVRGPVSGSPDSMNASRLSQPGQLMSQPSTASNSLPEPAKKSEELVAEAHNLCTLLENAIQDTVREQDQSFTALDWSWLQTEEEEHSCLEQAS
Put plainly: IKK-β kinase inhibitory assay. Type of assay: biochemical. The note with it: compounds as yielded by solid phase synthesis, purity about 40 to 90%, read-out: In vitro activity grade (In vitro IC50). In outline:
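His-tagged human IKK-β from baculovirus-infected Sf21 cells (0.6 μg/ml final) phosphorylates biotinylated GST-IκBα(1-54) (0.2 μM) in Tris-HCl pH 7.6 buffer with MgCl2. ATP with [γ-33P]ATP added, then 2 h at room temperature. Biotinylated substrate captured on streptavidin plates; bound radioactivity counted by scintillation.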
Take `N#Cc1c(C2CCCNC2)cc(-c2c(O)cccc2OCc2ccc(Cl)c(Cl)c2)nc1N` (centres unmarked) [Example 2-05]: the IC50 (usually the midpoint of a concentration-inhibition curve) was less than 500 nM. The value for `Cc1ccccc1COc1cccc(O)c1-c1cc(C2CCCNC2)c(C#N)c(N)n1` (centres unmarked) [Example 2-06] was less than 500 nM; that for `N#Cc1c(C2CCCNC2)cc(-c2c(O)cccc2OCc2ccccc2-c2ccccc2)nc1N` (centres unmarked) [Example 2-22] was less than 500 nM; that for `N#Cc1c(C2CCNCC2)cc(-c2c(O)cccc2OCc2ccccc2)nc1N` [Example 2-23] was less than 500 nM. In the case of `N#Cc1c(C2CCCNC2)cc(-c2c(O)cccc2OCc2ccc(Br)cc2)nc1N` (centres unmarked) [Example 2-24] it was less than 500 nM; in that of `N#Cc1c(C2CCCNC2)cc(-c2c(O)cccc2OCc2ccccc2F)nc1N` (centres unmarked) [Example 2-25], less than 500 nM. On to `N#Cc1c(C2CCCNC2)cc(-c2c(O)cccc2OCc2ccc(F)cc2F)nc1N` (centres unmarked) [Example 2-26], for which the IC50 is less than 500 nM. The value for `N#Cc1c(C2CCCNC2)cc(-c2c(O)cccc2OCc2cccc(F)c2)nc1N` (centres unmarked) [Example 2-27] was less than 500 nM; that for `N#Cc1c(C2CCCNC2)cc(-c2c(O)cccc2OCc2ccc(F)cc2)nc1N` (centres unmarked) [Example 2-28] was less than 500 nM. In the case of `N#Cc1c(C2CCCNC2)cc(-c2c(O)cccc2OCc2ccc(F)c(F)c2)nc1N` (centres unmarked) [Example 2-29] it was less than 500 nM; in that of `COC(=O)c1ccc(COc2cccc(O)c2-c2cc(C3CCCNC3)c(C#N)c(N)n2)cc1` (centres unmarked) [Example 2-30], less than 500 nM. The value for `CC(C)(C)c1ccc(COc2cccc(O)c2-c2cc(C3CCCNC3)c(C#N)c(N)n2)cc1` (centres unmarked) [Example 2-31] was less than 500 nM; that for `N#Cc1c(C2CCCNC2)cc(-c2c(O)cccc2OCc2cccc3ccccc23)nc1N` (centres unmarked) [Example 2-32] was less than 500 nM. Take `N#Cc1c(C2CCCNC2)cc(-c2c(O)cccc2OCc2ccc(-c3ccccc3)cc2)nc1N` (centres unmarked) [Example 2-33]: the IC50 is less than 500 nM.

For the compound `N#Cc1c(C2CCCNC2)cc(-c2c(O)cccc2OCc2ccc(Cl)cc2Cl)nc1N` (centres unmarked) [Example 2-34], the IC50 was less than 500 nM.

Regarding `Cc1ccc(COc2cccc(O)c2-c2cc(C3CCCNC3)c(C#N)c(N)n2)cc1` (centres unmarked) [Example 2-35], the IC50 is less than 500 nM. In the case of `N#Cc1c(C2CCCNC2)cc(-c2c(O)cccc2OCc2ccc(C(F)(F)F)cc2)nc1N` (centres unmarked) [Example 2-36] it was less than 500 nM; in that of `N#Cc1c(C2CCCNC2)cc(-c2c(O)cccc2OCc2ccccc2F)nc1N` (centres unmarked) [Example 2-37], less than 500 nM; in that of `COC(=O)c1ccc(COc2cccc(O)c2-c2cc(C3CCCNC3)c(C#N)c(N)n2)cc1` (centres unmarked) [Example 2-38], less than 500 nM. `N#Cc1c(C2CCCNC2)cc(-c2c(O)cccc2OCc2ccc(Br)cc2)nc1N` (centres unmarked) [Example 2-39]: the IC50 is less than 500 nM.

Consider `N#Cc1c(CCN)cc(-c2c(O)cccc2OCc2ccccc2)nc1N` [Example 2-40], for which the IC50 is less than 500 nM. The value for `N#Cc1c(C2CCCNC2)cc(-c2c(O)cccc2OCCc2ccccc2)nc1N` (centres unmarked) [Example 2-41] was less than 500 nM. In the case of `N#Cc1c(C2CCCNC2)cc(-c2c(O)cccc2OCc2ccccn2)nc1N` (centres unmarked) [Example 2-42] it was less than 500 nM.

Take `N#Cc1c(C2CCCNC2)cc(-c2c(O)cccc2OCc2cccnc2)nc1N` (centres unmarked) [Example 2-43]: the IC50 was less than 500 nM. The value for `N#Cc1c(C2CCCNC2)cc(-c2c(O)cccc2OCc2ccncc2)nc1N` (centres unmarked) [Example 2-44] was less than 500 nM; that for `N#Cc1c(C2CCCNC2)cc(-c2c(O)cccc2OCc2ccc3ccccc3n2)nc1N` (centres unmarked) [Example 2-45] was less than 500 nM; that for `N#Cc1c(C2CCCNC2)cc(-c2c(O)cccc2OCCC(c2ccccc2)c2ccccc2)nc1N` (centres unmarked) [Example 2-46] was less than 500 nM. Take `N#Cc1c(C2CCCNC2)cc(-c2c(O)cccc2OCc2csc3ccc(Cl)cc23)nc1N` (centres unmarked) [Example 2-47]: the IC50 is less than 500 nM. The value for `N#Cc1c(C2CCCNC2)cc(-c2c(O)cccc2OCc2ncon2)nc1N` (centres unmarked) [Example 2-48] was less than 500 nM. Regarding `Cc1cc(COc2cccc(O)c2-c2cc(C3CCCNC3)c(C#N)c(N)n2)no1` (centres unmarked) [Example 2-49], the IC50 is less than 500 nM. In the case of `N#Cc1c(C2CCCNC2)cc(-c2c(O)cccc2OCCCc2ccccc2)nc1N` (centres unmarked) [Example 2-50] it was less than 500 nM; in that of `N#Cc1c(C2CCCNC2)cc(-c2c(O)cccc2OCC(=O)c2ccccc2)nc1N` (centres unmarked) [Example 2-51], less than 500 nM; in that of `N#Cc1c(C2CCNCC2)cc(-c2c(O)cccc2OCCc2ccccc2)nc1N` [Example 2-52], less than 500 nM. The value for `N#Cc1c(C2CCCNC2)cc(-c2c(O)cccc2OCC2CCCCC2)nc1N` (centres unmarked) [Example 2-53] was less than 500 nM; that for `CC(C)Oc1cccc(O)c1-c1cc(C2CCCNC2)c(C#N)c(N)n1` (centres unmarked) [Example 2-54] was less than 500 nM. Take `CCCOc1cccc(O)c1-c1cc(C2CCCNC2)c(C#N)c(N)n1` (centres unmarked) [Example 2-55]: the IC50 was less than 500 nM. The value for `C=CCOc1cccc(O)c1-c1cc(C2CCCNC2)c(C#N)c(N)n1` (centres unmarked) [Example 2-56] was less than 500 nM; that for `COc1cccc(O)c1-c1cc(C2CCCNC2)c(C#N)c(N)n1` (centres unmarked) [Example 2-57] was less than 500 nM. In the case of `CCOc1cccc(O)c1-c1cc(C2CCCNC2)c(C#N)c(N)n1` (centres unmarked) [Example 2-58] it was less than 500 nM; in that of `CC(C)COc1cccc(O)c1-c1cc(C2CCCNC2)c(C#N)c(N)n1` (centres unmarked) [Example 2-59], less than 500 nM; in that of `CCCCCOc1cccc(O)c1-c1cc(C2CCCNC2)c(C#N)c(N)n1` (centres unmarked) [Example 2-60], less than 500 nM. In the case of `CN1CCCC(c2cc(-c3ccccc3O)nc(N)c2C#N)C1` (centres unmarked) [Example 3-03] it was less than 500 nM. Take `CCCN1CCCC(c2cc(-c3ccccc3O)nc(N)c2C#N)C1` (centres unmarked) [Example 3-04]: the IC50 is less than 500 nM. For the compound `N#Cc1c(C2CCCN(Cc3ccccc3)C2)cc(-c2ccccc2O)nc1N` (centres unmarked) [Example 3-05], the IC50 is less than 500 nM. In the case of `N#Cc1c(C2CCCN(CCc3ccccc3)C2)cc(-c2ccccc2O)nc1N` (centres unmarked) [Example 3-06] it was 500 to 2000 nM. In the case of `COc1ccc(CN2CCCC(c3cc(-c4c(O)cccc4O)nc(N)c3C#N)C2)cc1` (centres unmarked) [Example 3-07] it was less than 500 nM; in that of `COc1ccc(CN2CCCC(c3cc(-c4c(O)cccc4OCC4CC4)nc(N)c3C#N)C2)cc1` (centres unmarked) [Example 3-08], 2000 to 10000 nM; in that of `Nc1nc(-c2c(O)cccc2OCc2ccccc2)cc(C2CCCNC2)c1CO` (centres unmarked) [Example 12-02], less than 500 nM. The value for `CCCOc1cccc(O)c1-c1cc(C2CCCNC2)c(CO)c(N)n1` (centres unmarked) [Example 12-03] was less than 500 nM. On to `CC(C)(C)COc1cccc(O)c1-c1cc(C2CCCNC2)c(CO)c(N)n1` (centres unmarked) [Example 12-04], for which the IC50 is less than 500 nM. The value for `Nc1nc(-c2c(O)cccc2OCC2CC2)cc(C2CCNCC2)c1CO` [Example 12-05] was less than 500 nM; that for `CCCOc1cccc(O)c1-c1cc(C2CCNCC2)c(CO)c(N)n1` [Example 12-06] was less than 500 nM; that for `CC(C)CCCOc1cccc(O)c1-c1cc(C2CCNCC2)c(CO)c(N)n1` [Example 12-07] was less than 500 nM. In the case of `O=C1Nc2nc(-c3c(O)cccc3F)cc(C3CCCNC3)c2CO1` (centres unmarked) [Example 18-07] it was less than 500 nM; in that of `O=C1Nc2nc(-c3ncccc3O)cc(C3CCCNC3)c2CO1` (centres unmarked) [Example 18-08], less than 500 nM. In the case of `Cc1cc(-c2c(O)cccc2OCC2CC2)nc2c1COC(=O)N2` [Example 18-09] it was 2000 to 10000 nM; in that of `O=C1Nc2nc(-c3c(O)cccc3OCc3ccccc3)cc(C3CCCNC3)c2CO1` (centres unmarked) [Example 18-10], less than 500 nM; in that of `CCCOc1cccc(O)c1-c1cc(C2CCCNC2)c2c(n1)NC(=O)OC2` (centres unmarked) [Example 18-11], less than 500 nM.

With `O=C1Nc2nc(-c3c(O)cccc3O)cc(C3CCNCC3)c2CO1` [Example 18-12], the IC50 fell in the range of 500 to 2000 nM. In the case of `O=C1Nc2nc(-c3c(O)cccc3OCC3CC3)cc(C3CCNCC3)c2CO1` [Example 18-13] it was less than 500 nM; in that of `CCCOc1cccc(O)c1-c1cc(C2CCNCC2)c2c(n1)NC(=O)OC2` [Example 18-14], less than 500 nM.

With `CC(C)CCCOc1cccc(O)c1-c1cc(C2CCNCC2)c2c(n1)NC(=O)OC2` [Example 18-15], the IC50 is less than 500 nM. For the compound `O=C1Nc2nc(-c3c(O)cccc3OCc3ccccc3)cc(C3CCNCC3)c2CO1` [Example 18-16], the IC50 is less than 500 nM. The value for `CC(=O)NCc1c(C2CCCNC2)cc(-c2ccccc2O)nc1N` (centres unmarked) [Example 23-04] was less than 500 nM. Consider `Nc1nc(-c2ccccc2O)cc(C2CCCNC2)c1CNC(=O)C1CC1` (centres unmarked) [Example 23-05], for which the IC50 was less than 500 nM.
